One data set in a line: in vitro. The settings on record: human.
A further data set deals with rgRSV224 virus. Kind of data set: Antiviral activity: rgRSV224 (GFP) replication in HeLa cells. The conditions noted are these: human respiratory syncytial virus, 72 h, read-out: RSV HELA EC50.

The structures appear in SMILES notation. pEC50: −log10 of the molar value.

Procedure for in vitro: The wells contain 0.05% DMSO per volume. Cells were incubated at 37° C. in a 5% CO2 atmosphere. […] In parallel, compounds were incubated for three days in a set of white 384-well microtiter plates (Corning) and the cytotoxicity of compounds in HeLa cells was determined by measuring the ATP content of the cells using the ATPlite kit (Perkin Elmer, Zaventem, Belgium) according to the manufacturer's instructions. The CC50 was defined as the 50% concentration for cytotoxicity.
Procedure for rgRSV224 virus: Black 384-well clear-bottom microtiter plates (Corning, Amsterdam, The Netherlands) were filled via acoustic drop ejection using the echo liquid handler (Labcyte, Sunnyvale, Calif.). 200 nL of compound stock solutions (100% DMSO) were transferred to the assay plates. 9 serial 4-fold dilutions of compound were made, creating per quadrant the same compound concentration. The assay was initiated by adding 10 μL of culture medium to each well (RPMI medium without phenol red, 10% FBS-heat inactivated, 0.04% gentamycin (50 mg/mL). All addition steps are done by using a multidrop dispenser (Thermo Scientific, Erembodegem, Belgium). Next, rgRSV224 virus (MOI=1) diluted in culture medium was added to the plates. rgRSV224 virus is an engineered virus that includes an additional GFP gene (Hallak L K, Spillmann D, Collins P L, Peeples M E. Glycosaminoglycan sulfation requirements for respiratory syncytial virus infection; Journal of virology (2000), 74(22), 10508-13) and was in-licensed from the NIH (Bethesda, Md., USA). Finally, 20 μL of a HeLa cell suspension (3,000 cells/well) were plated. Medium, virus- and mock-infected controls were included in each test. The wells contain 0.05% DMSO per volume. Cells were incubated at 37° C. in a 5% CO2 atmosphere. Three days post-virus exposure, viral replication was quantified by measuring GFP expression in the cells by an in house developed MSM laser microscope (Tibotec, Beerse, Belgium). The EC50 was defined as the 50% inhibitory concentration for GFP expression. In parallel, compounds were incubated for three days in a set of white 384-well microtiter plates (Corning) and the cytotoxicity of compounds in HeLa cells was determined by measuring the ATP content of the cells using the ATPlite kit (Perkin Elmer, Zaventem, Belgium) according to the manufacturer's instructions. The CC50 was defined as the 50% concentration for cytotoxicity.

For `C[C@@H]1c2ccccc2CCN1C(=O)c1cc(C2CC2)n2c(F)c(-c3ccc([C@@H]4C[C@H]4C(=O)O)cc3F)nc2n1` (mixture of isomers) [Compound 25, trans-2-(4-{5-cyclopropyl-3-fluoro-7-[(1R)-1-methyl-1,2,3,4-tetrahydroisoquinoline-2-carbonyl]imidazo[1,2-a]pyrimidin-2-yl}-3-fluorophenyl)cyclopropane-1-carboxylic Acid], the CC50 at 3 days in “in vitro” was found to be 22.3 µM. The pEC50 (commonly the negative decadic logarithm of the EC50, by convention in mol/L) in the data set with rgRSV224 virus is 6.95.
Turning to `C[C@@H]1c2ccccc2CCN1C(=O)c1cc(C2CC2)n2c(F)c(-c3ccc([C@H]4C[C@H]4C(=O)O)cc3F)nc2n1` (mixture of isomers) [Compound 26, cis-2-(4-{5-cyclopropyl-3-fluoro-7-[(1R)-1-methyl-1,2,3,4-tetrahydroisoquinoline-2-carbonyl]imidazo[1,2-a]pyrimidin-2-yl}-3-fluorophenyl)cyclopropane-1-carboxylic Acid], in the data set “in vitro”, the CC50 at 3 days is 77.2 µM. Besides, in the data set with rgRSV224 virus, the pEC50 was 5.47.
The matching figures for `CCc1cc(C(=O)N2CCc3ccccc3[C@H]2C)cc2cc(-c3ccc(C4C[C@H]4C(=O)O)cc3F)nn12` (relative stereo) [Compound 4, Trans-2-(4-{7-ethyl-5-[(1R)-1-methyl-1,2,3,4-tetrahydroisoquinoline-2-carbonyl]pyrazolo[1,5-a]pyridin-2-yl}-3-fluorophenyl)cyclopropane-1-carboxylic Acid]: 57.6 µM and 6.66.
In the data set “in vitro”, `CCc1cc(C(=O)N2CCc3ccccc3[C@H]2C)c(OC)c2cc(-c3ccc(C4C[C@H]4C(=O)O)cc3F)nn12` (relative stereo) [Compound 5, trans-2-(4-{7-Ethyl-4-methoxy-5-[(1R)-1-methyl-1,2,3,4-tetrahydroisoquinoline-2-carbonyl]pyrazolo[1,5-a]pyridin-2-yl}-3-fluorophenyl)cyclopropane-1-carboxylic Acid] yielded a CC50 at 3 days of 47.2 µM. The negative logarithm of the EC50 (pEC50) with rgRSV224 virus was 5.77.
In turn, `C[C@@H]1c2ccccc2CCN1C(=O)c1cc(C2CC2)n2nc(-c3ccc(C4C[C@H]4C(=O)O)cc3F)cc2c1F` (relative stereo) [Compound 6, trans-2-(4-{7-Cyclopropyl-4-fluoro-5-[(1R)-1-methyl-1,2,3,4-tetrahydroisoquinoline-2-carbonyl]pyrazolo[1,5-a]pyridin-2-yl}-3-fluorophenyl)cyclopropane-1-carboxylic Acid] had a CC50 at 3 days in the data set “in vitro” of 50.2 µM. Further, the pEC50 in the data set with rgRSV224 virus was 7.05.
The matching figures for `C[C@@H]1c2ccccc2CCN1C(=O)c1cc(C2CC2)n2nc(-c3ccc(C4C[C@H]4C(=O)O)cc3F)nc2c1` (relative stereo) [Compound 16, trans-2-(4-{5-Cyclopropyl-7-[(1R)-1-methyl-1,2,3,4-tetrahydroisoquinoline-2-carbonyl]-[1,2,4]triazolo[1,5-a]pyridin-2-yl}-3-fluorophenyl)cyclopropane-1-carboxylic Acid]: 79.4 µM and 6.74.
`C[C@@H]1c2ccccc2CCN1C(=O)c1cc(C2CC2)n2nc(-c3ccc(C4C[C@@H]4C(=O)O)cc3F)nc2c1` (relative stereo) [Compound 17, cis-2-(4-{5-Cyclopropyl-7-[(1R)-1-methyl-1,2,3,4-tetrahydroisoquinoline-2-carbonyl]-[1,2,4]triazolo[1,5-a]pyridin-2-yl}-3-fluorophenyl)cyclopropane-1-carboxylic Acid] returned a CC50 at 3 days in the data set “in vitro” of over 100 µM. Moreover, the pEC50 in the data set on rgRSV224 virus was 5.70.
The matching figures for `C[C@@H]1c2ccccc2CCN1C(=O)c1cc(C2CC2)n2nc(-c3ccc(C4C[C@H]4C(N)=O)cc3F)nc2c1` (relative stereo) [Compound 18, trans-2-(4-{5-Cyclopropyl-7-[(1R)-1-methyl-1,2,3,4-tetrahydroisoquinoline-2-carbonyl]-[1,2,4]triazolo[1,5-a]pyridin-2-yl}-3-fluorophenyl)cyclopropane-1-carboxamide]: 47.9 µM and 6.75.
Taken in the same sequence, the figures for `C[C@@H]1c2ccccc2CCN1C(=O)c1cc(C2CC2)n2cc(-c3ccc(C4C[C@H]4C(=O)O)cc3F)nc2n1` (relative stereo) [Compound 24, trans-2-(4-{5-Cyclopropyl-7-[(1R)-1-methyl-1,2,3,4-tetrahydroisoquinoline-2-carbonyl]imidazo[1,2-a]pyrimidin-2-yl}-3-fluorophenyl)cyclopropane-1-carboxylic Acid] were 69.7 µM and 6.98.
The matching figures for `CCc1cc(C(=O)N2CCc3ccccc3[C@H]2C)cc2cc(-c3ccc([C@H]4C[C@@H]4C(=O)O)cc3F)cn12` [Compound 1, (1S,2S)-2-(4-{5-Ethyl-7-[(1R)-1-methyl-1,2,3,4-tetrahydroisoquinoline-2-carbonyl]indolizin-2-yl}-3-fluorophenyl)cyclopropane-1-carboxylic Acid]: 45.1 µM and 6.71.
In the data set “in vitro”, `CCc1cc(C(=O)N2CCc3ccccc3[C@H]2C)cc2cc(-c3ccc([C@H]4C[C@@H]4C(N)=O)cc3F)cn12` [Compound 2] returned a CC50 at 3 days of 52.7 µM. Besides, in the data set on rgRSV224 virus, the pEC50 is 6.46.
The matching figures for `CCc1cc(C(=O)N2CCc3ccccc3[C@H]2C)cc2cc(-c3ccc(N4CC[C@H](C(=O)O)C4)cc3F)cn12` [Compound 3, (3S)-1-(4-{5-Ethyl-7-[(1R)-1-methyl-1,2,3,4-tetrahydroisoquinoline-2-carbonyl]indolizin-2-yl}-3-fluorophenyl)pyrrolidine-3-carboxylic Acid]: 44 µM and 6.66.
The matching figures for `C[C@@H]1c2ccccc2CCN1C(=O)c1cc(C2CC2)n2nc(-c3ccc(N4CC[C@H](C(=O)O)C4)cc3F)cc2c1` [Compound 7, (3S)-1-(4-{7-Cyclopropyl-5-[(1R)-1-methyl-1,2,3,4-tetrahydroisoquinoline-2-carbonyl]pyrazolo[1,5-a]pyridin-2-yl}-3-fluorophenyl)pyrrolidine-3-carboxylic Acid]: 48 µM and 7.19.
The matching figures for `C[C@@H]1c2ccccc2CCN1C(=O)c1cc(C2CC2)n2nc(-c3ccc(N4CC[C@H](C(N)=O)C4)cc3F)cc2c1` [Compound 8, (3S)-1-(4-{7-Cyclopropyl-5-[(1R)-1-methyl-1,2,3,4-tetrahydroisoquinoline-2-carbonyl]pyrazolo[1,5-a]pyridin-2-yl}-3-fluorophenyl)pyrrolidine-3-carboxamide]: 53.4 µM and 7.27.
`CCc1cc(C(=O)N2CCc3ccccc3[C@H]2C)c(C)c2cc(-c3ccc(N4CC[C@H](C(=O)O)C4)cc3F)nn12` [Compound 9, (3S)-1-(4-{7-Ethyl-4-methyl-5-[(1R)-1-methyl-1,2,3,4-tetrahydroisoquinoline-2-carbonyl]pyrazolo[1,5-a]pyridin-2-yl}-3-fluorophenyl)pyrrolidine-3-carboxylic Acid] gave a CC50 at 3 days in “in vitro” of 50.6 µM. Besides, in the data set with rgRSV224 virus, the pEC50 was 6.22.
`C[C@@H]1c2ccccc2CCN1C(=O)c1cc(C2CC2)n2nc(-c3ccc(N4CC[C@H](C(N)=O)C4)cc3F)cc2c1F` [Compound 10, (3S)-1-(4-{7-Cyclopropyl-4-fluoro-5-[(1R)-1-methyl-1,2,3,4-tetrahydroisoquinoline-2-carbonyl]pyrazolo[1,5-a]pyridin-2-yl}-3-fluorophenyl)pyrrolidine-3-carboxamide] displayed a CC50 at 3 days in the data set “in vitro” of 40.4 µM. Moreover, the pEC50 with rgRSV224 virus is 7.21.
The matching figures for `C[C@@H]1c2ccccc2CCN1C(=O)c1cc(C2CC2)n2nc(-c3ccc(N4CC[C@H](C(=O)O)C4)cc3F)nc2c1` [Compound 19, (3S)-1-(4-{5-Cyclopropyl-7-[(1R)-1-methyl-1,2,3,4-tetrahydroisoquinoline-2-carbonyl]-[1,2,4]triazolo[1,5-a]pyridin-2-yl}-3-fluorophenyl)pyrrolidine-3-carboxylic Acid]: 60.9 µM and 7.00.
Taken in the same sequence, the figures for `C[C@@H]1c2ccccc2CCN1C(=O)c1cc(C2CC2)n2nc(-c3ccc(N4CC[C@H](C(N)=O)C4)cc3F)nc2c1` [Compound 20, (3S)-1-(4-{5-Cyclopropyl-7-[(1R)-1-methyl-1,2,3,4-tetrahydroisoquinoline-2-carbonyl]-[1,2,4]triazolo[1,5-a]pyridin-2-yl}-3-fluorophenyl)pyrrolidine-3-carboxamide] were 45.6 µM and 6.99.
`C[C@@H]1c2ccccc2CCN1C(=O)c1cc2cc(-c3ccc(N4CC[C@H](C(=O)O)C4)cc3F)nn2c(C2CC2)n1` [Compound 21, (3S)-1-(4-{7-Cyclopropyl-5-[(1R)-1-methyl-1,2,3,4-tetrahydroisoquinoline-2-carbonyl]pyrazolo[1,5-c]pyrimidin-2-yl}-3-fluorophenyl)pyrrolidine-3-carboxylic Acid] displayed a CC50 at 3 days in the data set “in vitro” of 29.8 µM. In the data set with rgRSV224 virus, the pEC50 is 6.25.
In the data set “in vitro”, `C[C@@H]1c2ccccc2CCN1C(=O)c1cc2cc(-c3ccc(N4CC[C@H](C(N)=O)C4)cc3F)nn2c(C2CC2)n1` [Compound 22, (3S)-1-(4-{7-Cyclopropyl-5-[(1R)-1-methyl-1,2,3,4-tetrahydroisoquinoline-2-carbonyl]pyrazolo[1,5-c]pyrimidin-2-yl}-3-fluorophenyl)pyrrolidine-3-carboxamide] yielded a CC50 at 3 days of over 100 µM. For the same molecule, the pEC50 in the data set on rgRSV224 virus was 6.06.
The matching figures for `CNC(=O)[C@H]1CCN(c2ccc(-c3cc4cc(C(=O)N5CCc6ccccc6[C@H]5C)nc(C5CC5)n4n3)c(F)c2)C1` [Compound 23, (3S)-1-(4-{7-Cyclopropyl-5-[(1R)-1-methyl-1,2,3,4-tetrahydroisoquinoline-2-carbonyl]pyrazolo[1,5-c]pyrimidin-2-yl}-3-fluorophenyl)-N-methylpyrrolidine-3-carboxamide]: over 100 µM and 6.05.
In turn, `C[C@@H]1c2ccccc2CCN1C(=O)c1cc(C2CC2)n2cc(-c3ccc(N4CC[C@H](C(=O)O)C4)cc3F)nc2n1` [Compound 27, (3S)-1-(4-{5-Cyclopropyl-7-[(1R)-1-methyl-1,2,3,4-tetrahydroisoquinoline-2-carbonyl]imidazo[1,2-a]pyrimidin-2-yl}-3-fluorophenyl)pyrrolidine-3-carboxylic Acid] showed a CC50 at 3 days in “in vitro” of 40.4 µM. For the same molecule, the pEC50 in the data set with rgRSV224 virus was 6.80.

Source of the values: patent US11708369B2, “Heteroaromatic compounds having activity against RSV” (Janssen Sciences Ireland Unlimited Company, priority 2018, dated 2023).
